In US20230406859A1, “METHOTREXATE ANALOGS AND METHODS OF USE” (The United States of America, as represented by the …, priority 2020, published 2023) one finds Dmax, IC50 and DC50 data, which are given here for 15 molecules.

The target of data set [1] is T1, human DHFR-HiBiT fusion protein (Homo sapiens, UniProt P00374).
T1 construct: expressed in transfected cells; host or cells: HBL1 cells retrovirally infected with pBMN-Ires-Lyt-2 carrying DHFR-HiBiT
T1 sequence (P00374 with tags, fused parts or gaps): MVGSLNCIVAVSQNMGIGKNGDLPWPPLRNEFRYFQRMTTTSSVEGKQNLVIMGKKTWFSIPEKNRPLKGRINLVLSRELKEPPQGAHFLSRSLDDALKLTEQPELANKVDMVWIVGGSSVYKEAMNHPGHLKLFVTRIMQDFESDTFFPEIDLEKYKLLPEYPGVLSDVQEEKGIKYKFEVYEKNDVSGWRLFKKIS
Put plainly: DHFR-HiBiT assay (high-throughput DHFR abundance) in HBL1 cells. It is filed as cell-based. As to conditions: for Dmax: % change in untreated cellular DHFR level (control), negative = degradation, positive = stabilization, HBL1, 24 h, read-out: efficacy (%). The source says:
The human DHFR-HiBiT construct was synthetized (Bio Basic) and cloned into the retroviral vector pBMN-Ires-Lyt-2 (provided by G. Nolan, Stanford University, Stanford, CA) which expresses the coding region of mouse CD8a (Lyt-2) using the restriction sites BamHI/XhoI. All constructs were sequenced to validate authenticity. Infected cells were positively selected based on murine CD8a expression using magnetic beads (Miltenyi Biotech).
Cell culture: Human embryonic kidney HEK293T cells were maintained in DMEM (Gibco) supplemented with 10% fetal bovine serum (Hyclone), 2 mmol/L 1-glutamine, HEPES (Gibco) and 100 U/mL penicillin/streptomycin (Invitrogen). The lymphoma cell line HBL1 were maintained in RPMI (Life Technology) supplemented with 5% fetal bovine serum (Hyclone), 2 mmol/L L-glutamine, HEPES (Gibco) and 100 U/mL penicillin/streptomycin (Invitrogen).
Transfection and retroviral infections: Transfections were performed using Lipofectamine 2000 (Invitrogen) according to the manufacturer's protocol. For retroviral infections, viruses were produced in HEK293T cells and used to infect HBL1 cell line. […] Supernatants containing the retrovirus were collected and filtered at 48- and 72-hours post-transfection. HBL1 cells were centrifuged and then resuspended with the retroviral supernatant with 8 μg/ml of polybrene. The cells were spin-infected twice on consecutive days at 2,500 rpm, at RT, for 90 minutes.
Lytic HiBiT Detection: Cells were plated in solid white 1536-well tissue culture plates (Greiner), at the concentration of 2000 cells/well. After treatment, an equal volume of Nano-Glo HiBiT Lytic Reagent (Promega) containing the substrate furimazine and Large BiT (LgBiT) was added to the cells according to the manufacturer's protocol. Cells were incubated for 10 min at room temperature, and luminescence was measured using a Perkin Elmer ViewLux microplate imager with 30 seconds of exposure time.
For orientation: The HiBiT peptide binds its large partner to form an active luciferase.

The test system of data set [2] is HBL1 cell line. Put plainly: CellTiter-Glo cell viability (cytotox), HBL1 cell line, 72 hours. It is filed as cell-based. As to conditions: HBL1 cell line, CellTiter-Glo; unit inferred. The method, then:
CellTiter-Glo viability assays: Five μL of cells (2500 cells) from the 12-well plate culture were plated into white 1536-well plates (Greiner, Monroe, NC, 789173-F) in 6 replicates. CellTiter-Glo Luminescent Cell Viability Assay (CTG) (Promega, G7572), 2.5 μL/well reagent was added with a BioRAPTR FRD (Beckman Coulter, Sykesville, MD), plates were incubated in the dark at ambient temperature for 10 min, and luminescence measured with a ViewLux 1430 Ultra HTS (Perkin Elmer, Waltham, MA).
(Cellular ATP, detected with luciferase, serves as a proxy for viable cell number.)

In the case of `COC(=O)[C@H](CCC(=O)NCCCCCCCCNc1cccc2c1C(=O)N(C1CCC(=O)NC1=O)C2=O)NC(=O)c1ccc(N(C)Cc2cnc3nc(N)nc(N)c3n2)cc1` (some centres unmarked) [NCGC00687472], in data set [1], the Dmax was determined as 62.9%. Also, half-maximal inhibition in data set [2] (IC50) was put at 12.2 µM. For `CN(Cc1cnc2nc(N)nc(N)c2n1)c1ccc(C(=O)N[C@@H](CCC(=O)NCCOCCOCCNc2cccc3c2C(=O)N(C2CCC(=O)NC2=O)C3=O)C(=O)O)cc1` (some centres unmarked) [NCGC00687555], in that order: 56.9% and 3.93 µM. For `COC(=O)[C@H](CCC(=O)NCCCCCCCCNc1cccc2c1C(=O)N(C1CCC(=O)NC1=O)C2=O)NC(=O)CC[C@H](NC(=O)CC[C@H](NC(=O)c1ccc(N(C)Cc2cnc3nc(N)nc(N)c3n2)cc1)C(=O)O)C(=O)OC` (stereo partly drawn) [NCGC00687569, N2-(4-(((2,4-diaminopteridin-6-yl)methyl)(methyl)amino)benzoyl)-N5-((2S)-5-(((2S)-5-((8-((2-(2,6-dioxopiperidin-3-yl)-1,3-dioxoisoindolin-4-yl)amino)octyl)amino)-1-methoxy-1,5-dioxopentan-2-yl)amino)-1-methoxy-1,5-dioxopentan-2-yl)-L-glutamine], in that order: 53.9% and 21.5 µM. As to `COC(=O)[C@H](CCC(=O)NCCCCCCCCNc1cccc2c1C(=O)N(C1CCC(=O)NC1=O)C2=O)NC(=O)CC[C@H](NC(=O)c1ccc(N(C)Cc2cnc3nc(N)nc(N)c3n2)cc1)C(=O)O` (some centres unmarked) [NCGC00687576], the Dmax in data set [1] came out at 62.3%. Moreover, inhibition in data set [2] was half-maximal at 17 µM (IC50). For `COC(=O)[C@H](CCC(=O)NCCCCCCCCNc1cccc2c1C(=O)N(C1CCC(=O)NC1=O)C2=O)NC(=O)CC[C@H](NC(=O)CC[C@H](NC(=O)CC[C@H](NC(=O)c1ccc(N(C)Cc2cnc3nc(N)nc(N)c3n2)cc1)C(=O)O)C(=O)OC)C(=O)OC` (stereo partly drawn) [NCGC00687807, (2S,7S,12S,17S)-2-(4-(((2,4-diaminopteridin-6-yl)methyl)(methyl)amino)benzamido)-29-((2-(2,6-dioxopiperidin-3-yl)-1,3-dioxoisoindolin-4-yl)amino)-7,12,17-tris(methoxycarbonyl)-5,10,15,20-tetraoxo-6,11,16,21-tetraazanonacosanoic acid] the same measures were 48.1% and 20.8 µM. For `COC(=O)[C@H](CCC(=O)NCCCCCCCCNc1cccc2c1C(=O)N(C1CCC(=O)NC1=O)C2=O)NC(=O)CC[C@H](NC(=O)CC[C@H](NC(=O)CC[C@H](NC(=O)CC[C@H](NC(=O)c1ccc(N(C)Cc2cnc3nc(N)nc(N)c3n2)cc1)C(=O)O)C(=O)OC)C(=O)OC)C(=O)OC` (stereo partly drawn) [NCGC00687811, (2S,7S,12S,17S,22S)-2-(4-(((2,4-diaminopteridin-6-yl)methyl)(methyl)amino)benzamido)-34-((2-(2,6-dioxopiperidin-3-yl)-1,3-dioxoisoindolin-4-yl)amino)-7,12,17,22-tetrakis(methoxycarbonyl)-5,10,15,20,25-pentaoxo-6,11,16,21,26-pentaazatetratriacontanoic acid], in that order: 40.5% and 22.4 µM. On to `CN1C(=O)CCC(N2C(=O)c3cccc(NCCCCCCCCNC(=O)CC[C@H](NC(=O)c4ccc(N(C)Cc5cnc6nc(N)nc(N)c6n5)cc4)C(=O)O)c3C2=O)C1=O` (stereo partly drawn) [NCGC00687847, N2-(4-(((2,4-diaminopteridin-6-yl)methyl)(methyl)amino)benzoyl)-N5-(8-((2-(1-methyl-2,6-dioxopiperidin-3-yl)-1,3-dioxoisoindolin-4-yl)amino)octyl)-L-glutamine], for which the Dmax in data set [1] is -93.2%. For the same molecule, the DC50 in data set [1] (HBL1 cells expressing DHFR-HiBiT, 24 h, degradation or stabilization potency, average of N = 2-5, read-out: Ave EC50) came to 3 µM. The same molecule gave an IC50 in data set [2] of 25.4 µM.

In data set [2], `CN(Cc1cnc2nc(N)nc(N)c2n1)c1ccc(C(=O)N[C@@H](CCC(=O)O)C(=O)NCCOCCOCCOCCNC(=O)COc2cccc3c2C(=O)N(C2CCC(=O)NC2=O)C3=O)cc1` (stereo partly drawn) [NCGC00690069, (17S)-17-(4-(((2,4-diaminopteridin-6-yl)methyl)(methyl)amino)benzamido)-1-((2-(2,6-dioxopiperidin-3-yl)-1,3-dioxoisoindolin-4-yl)oxy)-2,16-dioxo-6,9,12-trioxa-3,15-diazaicosan-20-oic acid] returned an IC50 of 35.8 µM. Still for that read-out and setting: the same measure for `CN(Cc1cnc2nc(N)nc(N)c2n1)c1ccc(C(=O)NC(CCC(=O)O)C(=O)NCCCCCCCCNc2cccc3c2C(=O)N(C2CCC(=O)NC2=O)C3=O)cc1` (centres unmarked) [NCGC00690075, 4-(4-(((2,4-diaminopteridin-6-yl)methyl)(methyl)amino)benzamido)-5-((8-((2-(2,6-dioxopiperidin-3-yl)-1,3-dioxoisoindolin-4-yl)amino)octyl)amino)-5-oxopentanoic acid]: 70 µM. For the molecule `Nc1nc(N)c2nc(CN(CCCCCCNC(=O)CCOCCOCCOCCOCCOc3cccc4c3C(=O)N(C3CCC(=O)NC3=O)C4=O)c3ccc(C(=O)N[C@@H](CCC(=O)O)C(=O)O)cc3)cnc2n1` (some centres unmarked) [NCGC00690395, (4-(((2,4-diaminopteridin-6-yl)methyl)(1-((2-(2,6-dioxopiperidin-3-yl)-1,3-dioxoisoindolin-4-yl)oxy)-15-oxo-3,6,9,12-tetraoxa-16-azadocosan-22-yl)amino)benzoyl)glutamic acid], the Dmax in data set [1] stood at 32.8%. In addition, in data set [2], the half-maximal inhibitory concentration (IC50) was found to be 33.4 µM. Molecule `Nc1nc(N)c2nc(CN(CCCCCCNC(=O)COc3cccc4c3C(=O)N(C3CCC(=O)NC3=O)C4=O)c3ccc(C(=O)N[C@@H](CCC(=O)O)C(=O)O)cc3)cnc2n1` (some centres unmarked) [NCGC00690396, (4-(((2,4-diaminopteridin-6-yl)methyl)(6-(2-((2-(2,6-dioxopiperidin-3-yl)-1,3-dioxoisoindolin-4-yl)oxy)acetamido)hexyl)amino)benzoyl)glutamic acid] registered an IC50 in data set [2] of 26.6 µM. Take `Cc1ncsc1-c1ccc(CNC(=O)[C@@H]2C[C@@H](O)CN2C(=O)C(NC(=O)CCOCCOCCC(=O)NCCCCCCN(Cc2cnc3nc(N)nc(N)c3n2)c2ccc(C(=O)N[C@@H](CCC(=O)O)C(=O)O)cc2)C(C)(C)C)cc1` (stereo partly drawn) [NCGC00690397, (4-(((2,4-diaminopteridin-6-yl)methyl)(3-((2S,4R)-4-hydroxy-2-((4-(4-methylthiazol-5-yl)benzyl)carbamoyl)pyrrolidine-1-carbonyl)-2,2-dimethyl-5,14-dioxo-8,11-dioxa-4,15-diazahenicosan-21-yl)amino)benzoyl)glutamic acid]: in data set [1], the Dmax was 64.1%. In data set [2], inhibition was half-maximal at 28.7 µM (IC50). With `Cc1ncsc1-c1ccc(CNC(=O)[C@@H]2C[C@@H](O)CN2C(=O)C(NC(=O)CCOCCOCCOCCOCCC(=O)NCCCCCCN(Cc2cnc3nc(N)nc(N)c3n2)c2ccc(C(=O)N[C@@H](CCC(=O)O)C(=O)O)cc2)C(C)(C)C)cc1` (stereo partly drawn) [NCGC00690398, (4-(((2,4-diaminopteridin-6-yl)methyl)(3-((2S,4R)-4-hydroxy-2-((4-(4-methylthiazol-5-yl)benzyl)carbamoyl)pyrrolidine-1-carbonyl)-2,2-dimethyl-5,20-dioxo-8,11,14,17-tetraoxa-4,21-diazaheptacosan-27-yl)amino)benzoyl)glutamic acid], the Dmax in data set [1] is 26%. In data set [2], this molecule yielded an IC50 of 36.7 µM. `CN(Cc1cnc2nc(N)nc(N)c2n1)c1ccc(C(=O)N[C@@H](CCC(=O)O)C(=O)NCCOCCOCCNc2cccc3c2C(=O)N(C2CCC(=O)NC2=O)C3=O)cc1` (stereo partly drawn) [NCGC00690407, (4S)-4-(4-(((2,4-diaminopteridin-6-yl)methyl)(methyl)amino)benzamido)-5-((2-(2-(2-((2-(2,6-dioxopiperidin-3-yl)-1,3-dioxoisoindolin-4-yl)amino)ethoxy)ethoxy)ethyl)amino)-5-oxopentanoic acid]: the 50% inhibitory concentration (IC50) in data set [2] was 32.9 µM.

`CN(Cc1cnc2nc(N)nc(N)c2n1)c1ccc(C(=O)N[C@@H](CCC(=O)O)C(=O)NCCCNc2cccc3c2C(=O)N(C2CCC(=O)NC2=O)C3=O)cc1` (stereo partly drawn) [NCGC00690412, (4S)-4-(4-(((2,4-diaminopteridin-6-yl)methyl)(methyl)amino)benzamido)-5-((3-((2-(2,6-dioxopiperidin-3-yl)-1,3-dioxoisoindolin-4-yl)amino)propyl)amino)-5-oxopentanoic acid] came in with an IC50 in data set [2] of 38.6 µM.

Broadly, the IC50 is the concentration at which inhibition is half-maximal.
